For series [1], the target named is T1, human tPA (Homo sapiens, UniProt P00750).
T1 construct: purchased Abcam ab108905
The series is described as follows: Chromogenic tPA activity assay. It is filed as biochemical. The conditions noted are these: 30-min assay. The text has this:
The commercially available tPA Activity Assay Kit (Abcam, ab108905) was used to assess whether senicapoc and TRAM-34 affect the ability of human tPA to cleave its substrate plasminogen similar to protocols published by Lapchak and Boitano [38] and Lapchak et al.. Reactions were run in optically clear flat-bottom 96-well plates (Corning, Catalog #3904). Human plasminogen activator inhibitor-1 (PAI-1; Sigma-Aldrich CC4075) was used as a positive control. Human plasminogen, the chromogenic plasmin substrate, and human tPA were included in the tPA Activity Assay Kit. […] The reactions were pre-incubated at 37 °C for 5 min prior to the addition of the chromogenic plasmin substrate and subsequently placed in a heated SpectraMax M5 spectrophotometer. Absorbances at 405 nm were measured every 30 s for 30 min.

On the set-up of series [2]: method as in PMID 22675649. The conditions noted are these: cited from earlier work.
The subject of series [3] is rats or mice, tMCAO. More on the design: method as in PMID 21750563, PMID 26661208. The note with it: cited from earlier work.

The text below walks through data of publication PMC11106165, “Repurposing the KCa3.1 Blocker Senicapoc for Ischemic Stroke” (Translational Stroke Research, 2023).

T1 sequence (P00750 36-562): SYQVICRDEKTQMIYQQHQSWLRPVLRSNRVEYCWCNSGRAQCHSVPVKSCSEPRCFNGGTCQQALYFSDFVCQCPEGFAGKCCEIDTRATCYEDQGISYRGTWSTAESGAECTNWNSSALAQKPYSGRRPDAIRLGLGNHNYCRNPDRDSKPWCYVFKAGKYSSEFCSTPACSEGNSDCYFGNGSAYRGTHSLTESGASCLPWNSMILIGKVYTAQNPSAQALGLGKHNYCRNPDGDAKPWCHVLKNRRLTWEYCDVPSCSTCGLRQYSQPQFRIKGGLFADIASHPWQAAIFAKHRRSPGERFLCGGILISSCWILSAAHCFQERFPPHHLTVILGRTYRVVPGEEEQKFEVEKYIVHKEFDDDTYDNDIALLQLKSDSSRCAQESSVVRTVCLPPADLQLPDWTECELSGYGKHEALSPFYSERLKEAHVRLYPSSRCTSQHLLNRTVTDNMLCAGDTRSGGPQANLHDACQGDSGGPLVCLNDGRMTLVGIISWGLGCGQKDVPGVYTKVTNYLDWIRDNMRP

Regarding `Clc1ccccc1C(c1ccccc1)(c1ccccc1)n1cccn1` [TRAM-34], the “effect on tPA activity (absorbance at 405 nm)” value in series [1] (0.5 μM and 5 μM, PBS with 10% human serum) is on record as “do not interfere with tPA activity”. For the same molecule, in series [2], the metabolic stability entry was “metabolic instability” and the oral availability result was “not orally available”. Further, in series [2] (rats and primates), the half-life is given as ~ 2 h. Also, in series [3] (MCAO, 11 animals per group), the “reduction in infarct area” value is ~ 50%. In series [3] (rats or mice, 8 days after tMCAO with reperfusion), the infarct area result was “significantly smaller infarct areas”.

As to “plasminogen activator inhibitor-1 [PAI-1]”, the “effect on tPA activity (absorbance at 405 nm)” value in series [1] (positive control) was “strongly inhibited”.
